Assay results from patent US4723004A, “Cephem compounds” (priority 1984, dated 1988).
“Also recorded” adds a separate entry of the source. Like-named read-outs stand apart in the source and are kept apart here.

Assays:
[1] = test system: Salmonella typhimurium IFO 12529; assay: MIC, antibacterial spectrum (nutrient agar); assay type: cell-based; conditions: Salmonella enterica, nutrient agar pH 7.0, 10^6 CFU/ml, sodium salt, read-out: Minimal inhibitory concentration
Excerpt: (§1) | Culture medium: Nutrient agar (pH 7.0) concentration of microorganisms | inoculated: 10^6 CFU (colony forming unit)/ml.

[2] = test system: Escherichia coli NIHJ JC-2; assay: MIC, antibacterial spectrum (nutrient agar); assay type: cell-based; conditions: NIHJJC2, nutrient agar pH 7.0, 10^6 CFU/ml, sodium salt, read-out: Minimal inhibitory concentration
Excerpt: as §1

[3] = test system: Pseudomonas aeruginosa IFO 3080; assay: MIC, antibacterial spectrum (nutrient agar); assay type: cell-based; conditions: IFO3080, nutrient agar pH 7.0, 10^6 CFU/ml, sodium salt, read-out: Minimal inhibitory concentration
Excerpt: as §1

[4] = test system: Bacillus subtilis NIHJ PCI219; assay: MIC, antibacterial spectrum (nutrient agar); assay type: cell-based; conditions: NIHJPCI219, nutrient agar pH 7.0, 10^6 CFU/ml, sodium salt, read-out: Minimal inhibitory concentration
Excerpt: as §1

[5] = test system: Alcaligenes faecalis IFO 13111; assay: MIC, antibacterial spectrum (nutrient agar); assay type: cell-based; conditions: IFO13111, nutrient agar pH 7.0, 10^6 CFU/ml, sodium salt, read-out: Minimal inhibitory concentration
Excerpt: as §1

[6] = test system: Bacillus megaterium IFO 12108; assay: MIC, antibacterial spectrum (nutrient agar); assay type: cell-based; conditions: Priestia megaterium, IFO12108, nutrient agar pH 7.0, 10^6 CFU/ml, sodium salt, read-out: Minimal inhibitory concentration
Excerpt: as §1

[7] = test system: Proteus vulgaris IFO 3988; assay: MIC, antibacterial spectrum (nutrient agar); assay type: cell-based; conditions: IFO3988, nutrient agar pH 7.0, 10^6 CFU/ml, sodium salt, read-out: Minimal inhibitory concentration
Excerpt: as §1

[8] = test system: Proteus mirabilis ATCC 21100; assay: MIC, antibacterial spectrum (nutrient agar); assay type: cell-based; conditions: ATCC21100, nutrient agar pH 7.0, 10^6 CFU/ml, sodium salt, read-out: Minimal inhibitory concentration
Excerpt: as §1

[9] = test system: Klebsiella pneumoniae IFO 3317; assay: MIC, antibacterial spectrum (nutrient agar); assay type: cell-based; conditions: IFO3317, nutrient agar pH 7.0, 10^6 CFU/ml, sodium salt, read-out: Minimal inhibitory concentration
Excerpt: as §1

[10] = test system: Serratia marcescens IFO 12648; assay: MIC, antibacterial spectrum (nutrient agar); assay type: cell-based; conditions: IFO12648, nutrient agar pH 7.0, 10^6 CFU/ml, sodium salt, read-out: Minimal inhibitory concentration
Excerpt: as §1

[11] = test system: Staphylococcus aureus FDA 209P; assay: MIC, antibacterial spectrum (nutrient agar); assay type: cell-based; conditions: FDA209P, nutrient agar pH 7.0, 10^6 CFU/ml, sodium salt, read-out: Minimal inhibitory concentration
Excerpt: as §1

Cephalosporinase [12] = target: T1, Cephalosporinase (Enterobacter cloacae, UniProt P05364); assay: Stability to β-lactamases, disc method, cephalosporinase (Table 2); assay type: cell-based; conditions: cephalosporinase 0.025 unit/ml; E. coli PG8; compound 100 g/ml (so in the source)
T1 construct: host or cells: Enterobacter cloacae
Description: (§2) Note: Used concentration of the compound; 100 µg/ml Employed strain;
(§3) Escherichia coli PG8 Culture medium; Nutrient agar medium (pH 7.0)
(§4) containing diaminopimelic acid (20 mg/l)
(Note 3) Cephalosprinase is derived from Enterobacter cloacae, 0.025

gram-positive bacteria = assay: Antibacterial activity against gram-positive bacteria (statement in words); assay type: cell-based
Penicillinase [13] = target: T2, Penicillinase (Bacillus cereus, UniProt P10424); assay: Stability to β-lactamases, disc method, penicillinase (Table 2); assay type: cell-based; conditions: penicillinase 0.048 unit/ml; E. coli PG8; compound 100 g/ml (so in the source)
T2 construct: purchased Calbio Chemical, U.S.A; host or cells: Bacillus cereus
Description: as §2, §3, §4
(Note 2) Penicillinase derived from Bacillus cereus (produced by Calbio
Chemical, U.S.A.)0.048 unit/ml.

[14] = Acute toxicity, subcutaneous administration to mice; assay type: in vivo; conditions: for toxicity: conclusion from 1 g/kg s.c. in mice; for death: mice, subcutaneous, 1 g/kg, sodium salt
β-lactamases = assay: Stability to β-lactamases (statement in words); assay type: cell-based
Escherichia coli PG8 = assay: Stability to β-lactamases, disc method, non-added control (Table 2); assay type: cell-based; conditions: PG8, read-out: Diameter of growth inhibition zone (by the disc method)
Description: as §2, §3, §4

Solubility = conditions: sodium salt
gram-negative bacteria = assay: Antibacterial activity against gram-negative bacteria (statement in words); assay type: cell-based
Cephalosporinase [15] = target: T1, Cephalosporinase; assay: Stability to β-lactamases, disc method, cephalosporinase (Table 5); assay type: cell-based; conditions: cephalosporinase 0.025 unit/ml, P. aeruginosa C141
Description: (§5) Concentration of the compound (II) 1000 μg/ml
(§6) Concentration of the other compounds: 100 μg/ml
(§7) Strain used: Pseudomonas aeruginosa C141
(§8) Culture medium: Nutrient agar medium (pH 7.0) containing diaminopimeric
(Note 4) The enzyme is derived from Enterobacter cloacae, 0.025 unit/ml.

Penicillinase [16] = target: T2, Penicillinase; assay: Stability to β-lactamases, disc method, penicillinase (Table 5); assay type: cell-based; conditions: penicillinase 0.048 unit/ml, P. aeruginosa C141
Description: as §5, §6, §7, §8
(Note 3) Penicillinase (Calbio Chemical, U.S.A.) derived from Bacillus

[17] = test system: Pseudomonas aeruginosa C141; assay: Stability to β-lactamases, disc method, non-added control (Table 5); assay type: cell-based; conditions: read-out: Diameter of growth inhibition zone (by the disc method); for zone of inhibition at 100 µg/mL: P. aeruginosa C141, other compounds 100 μg/ml
Description: as §5, §6, §7, §8

[18] = Stability in aqueous solution; assay type: physicochemical; conditions: for Stability: hydrochloride(s)
[19] = test system: Pseudomonas aeruginosa C141; assay: Antibacterial spectrum, growth inhibition zone (Table 4); assay type: cell-based; conditions: compound (II) 1000 μg/ml, pH 7.0, sodium salt, read-out: Diameter of growth inhibition zone
Description: as §8
(§9) Concentration of the compound (II): 1000 μg/ml.

Escherichia coli CP 13 = assay: as above; assay type: cell-based; conditions: CP13, E. coli CP 13, compound (II) 1000 μg/ml, pH 7.0, sodium salt, read-out: Diameter of growth inhibition zone
Description: as §8, §9

[20] = test system: Staphylococcus aureus FDA 209P; assay: as above; assay type: cell-based; conditions: FDA209P, compound (II) 1000 μg/ml, pH 7.0, sodium salt, read-out: Diameter of growth inhibition zone
Description: as §8, §9

T1 sequence (P05364 21-381): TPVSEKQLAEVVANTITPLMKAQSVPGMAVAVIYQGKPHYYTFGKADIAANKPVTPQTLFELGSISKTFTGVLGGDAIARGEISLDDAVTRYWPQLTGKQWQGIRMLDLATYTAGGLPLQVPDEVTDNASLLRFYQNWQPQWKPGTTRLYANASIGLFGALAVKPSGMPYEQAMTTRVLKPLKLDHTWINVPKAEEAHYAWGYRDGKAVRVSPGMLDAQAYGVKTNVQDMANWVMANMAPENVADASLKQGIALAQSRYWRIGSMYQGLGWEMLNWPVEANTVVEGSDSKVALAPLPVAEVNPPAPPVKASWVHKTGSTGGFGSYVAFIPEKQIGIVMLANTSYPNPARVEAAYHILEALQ
T2 sequence (P10424 44-306): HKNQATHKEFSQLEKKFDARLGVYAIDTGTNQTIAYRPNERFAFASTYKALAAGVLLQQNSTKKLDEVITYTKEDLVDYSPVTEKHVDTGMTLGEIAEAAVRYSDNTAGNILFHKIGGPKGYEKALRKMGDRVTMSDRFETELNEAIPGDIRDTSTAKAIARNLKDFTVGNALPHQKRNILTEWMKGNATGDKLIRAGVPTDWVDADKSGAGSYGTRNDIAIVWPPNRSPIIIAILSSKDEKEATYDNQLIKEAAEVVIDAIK

## NC(CCCC(=O)N[C@]1(NC=O)C(=O)N2C(C(=O)O)=C(CO)CSC21)C(=O)O (stereo partly drawn) [7-FA-DCPC, 7-formylamino-deacetylcephalosporin C]
[1]
  MIC: 25 µg/mL
[2]
  MIC: 50 µg/mL
[3]
  MIC: 100 µg/mL
[4]
  MIC: 100 µg/mL
[5]
  MIC: 12.5 µg/mL
[6]
  MIC: 100 µg/mL
[7]
  MIC: 25 µg/mL
[8]
  MIC: 12.5 µg/mL
[9]
  MIC: 50 µg/mL
[10]
  MIC: 25 µg/mL
[11]
  MIC: 100 µg/mL
Cephalosporinase [12]
  Diameter of growth inhibition zone (by the disc method): 23 mm
gram-positive bacteria
  antibacterial activity: exhibits antibacterial activity
gram-positive bacteria; listed as compound (IV)
  antibacterial activity: exhibits antimicrobial activity
Penicillinase [13]
  Diameter of growth inhibition zone (by the disc method): 23 mm
[14]
  toxicity: low toxicity
  death: no death was observed
β-lactamases
  Stability to β-lactamases: stable to various β-lactamases
β-lactamases; listed as compound (IV)
  Stability to β-lactamases: stable to β-lactamase producing strains
Escherichia coli PG8
  zone of inhibition at 100 µg/mL: 23 mm
Solubility; diethyl ether and ethyl acetate
  Solubility: Sparingly soluble
Solubility; methanol
  Solubility: Soluble
Solubility; water
  Solubility: Readily soluble
gram-negative bacteria
  antibacterial activity: exhibits antibacterial activity
gram-negative bacteria; listed as compound (IV)
  antibacterial activity: exhibits antimicrobial activity

## CO[C@@]1(NC(=O)CCC[C@@H](N)C(=O)O)C(=O)N2C(C(=O)O)=C(COC(N)=O)CS[C@@H]21 [CMC, Cephamycin C]
Cephalosporinase [12]
  Diameter of growth inhibition zone (by the disc method): < 8 mm
Cephalosporinase [15]; other compounds 100 μg/ml
  Diameter of growth inhibition zone (by the disc method): < 8 mm
Penicillinase [13]
  Diameter of growth inhibition zone (by the disc method): 30 mm
Penicillinase [16]; other compounds 100 μg/ml
  Diameter of growth inhibition zone (by the disc method): 27.5 mm
Escherichia coli PG8
  zone of inhibition at 100 µg/mL: 30 mm
[17]
  zone of inhibition at 100 µg/mL: 27.5 mm

## N[C@H](CCCC(=O)N[C@@H]1C(=O)N2C(C(=O)O)=C(CO)CS[C@H]12)C(=O)O [DCPC, deacetylcephalosporin C]
Cephalosporinase [12]
  Diameter of growth inhibition zone (by the disc method): < 8 mm
Cephalosporinase [15]; other compounds 100 μg/ml
  Diameter of growth inhibition zone (by the disc method): < 8 mm
Penicillinase [13]
  Diameter of growth inhibition zone (by the disc method): 30 mm
Penicillinase [16]; other compounds 100 μg/ml
  Diameter of growth inhibition zone (by the disc method): 30 mm
Escherichia coli PG8
  zone of inhibition at 100 µg/mL: 30 mm
[17]
  zone of inhibition at 100 µg/mL: 30 mm

## CC(N)C(=O)NC(CCCNC(=N)N)C(O)CC(=O)OCC1=C(C(=O)O)N2C(=O)[C@@](NC=O)(NC(=O)CCCC(N)C(=O)O)C2SC1 (stereo partly drawn) [TAN-547A]
[18]; acidic aqueous solution
  Stability: Unstable
[18]; basic aqueous solution
  Stability: Unstable
[18]; neutral aqueous solution
  Stability: slightly unstable

## CC(N)C(=O)NC(C)C(=O)NC(CCCNC(=N)N)C(O)CC(=O)OCC1=C(C(=O)O)N2C(=O)[C@@](NC=O)(NC(=O)CCCC(N)C(=O)O)C2SC1 (stereo partly drawn) [TAN-547B]
[18]; acidic aqueous solution
  Stability: Unstable
[18]; basic aqueous solution
  Stability: Unstable
[18]; neutral aqueous solution
  Stability: slightly unstable

## CC(N)C(=O)NC(C)C(=O)NC(C)C(=O)NC(CCCNC(=N)N)C(O)CC(=O)OCC1=C(C(=O)O)N2C(=O)[C@@](NC=O)(NC(=O)CCCC(N)C(=O)O)C2SC1 (stereo partly drawn) [TAN-547C]
[18]; acidic aqueous solution
  Stability: Unstable
[18]; basic aqueous solution
  Stability: Unstable
[18]; neutral aqueous solution
  Stability: slightly unstable

## CC(N)C(=O)NC(CCCNC(=N)N)C(O)CC(=O)OCC1=C(C(=O)O)N2C(=O)[C@@H](NC(=O)CCCC(N)C(=O)O)C2SC1 (stereo partly drawn) [TAN-547D]
[18]; acidic aqueous solution
  Stability: Slightly unstable
[18]; basic aqueous solution
  Stability: Unstable
[18]; neutral aqueous solution
  Stability: Slightly unstable

## CC(N)C(=O)NC(C)C(=O)NC(CCCNC(=N)N)C(O)CC(=O)OCC1=C(C(=O)O)N2C(=O)[C@@H](NC(=O)CCCC(N)C(=O)O)C2SC1 (stereo partly drawn) [TAN-547E]
[18]; acidic aqueous solution
  Stability: Slightly unstable
[18]; basic aqueous solution
  Stability: Unstable
[18]; neutral aqueous solution
  Stability: Slightly unstable

## CC(N)C(=O)NC(C)C(=O)NC(C)C(=O)NC(CCCNC(=N)N)C(O)CC(=O)OCC1=C(C(=O)O)N2C(=O)[C@@H](NC(=O)CCCC(N)C(=O)O)C2SC1 (stereo partly drawn) [TAN-547F]
[18]; acidic aqueous solution
  Stability: Slightly unstable
[18]; basic aqueous solution
  Stability: Unstable
[18]; neutral aqueous solution
  Stability: Slightly unstable

## N[C@]1(NC=O)C(=O)N2C(C(=O)O)=C(CO)CSC21 (stereo partly drawn) [compound (II)]
Cephalosporinase [15]; compound (II) 1000 μg/ml
  Diameter of growth inhibition zone (by the disc method): 19 mm
Penicillinase [16]; compound (II) 1000 μg/ml
  Diameter of growth inhibition zone (by the disc method): 19 mm
[14]
  toxicity: low toxicity
  death: no death was observed
[18]; compared with a cephem compound which is acetylated (--CH2OCOCH3 at 3-position)
  stability in aqueous solution: remarkably more stable in aqueous solution
β-lactamases
  Stability to β-lactamases: stable to various β-lactamases
[17]; P. aeruginosa C141, compound (II) 1000 μg/ml
  zone of inhibition at 1000 µg/mL: 19 mm
gram-negative bacteria
  antibacterial activity: exhibits antibacterial activity; also recorded: exhibits antimicrobial activity
[19]
  zone of inhibition at 1000 µg/mL: 19 mm
Escherichia coli CP 13
  zone of inhibition at 1000 µg/mL: 11 mm
[20]
  zone of inhibition at 1000 µg/mL: < 8 mm
